The source made the active and inactive calls. For most assays here, no stated cut-off is given here; in the data, actives have a measured Kd and inactives only a lower limit.
Experiments:
[1] = molecular target: cAMP-dependent protein kinase catalytic subunit beta (Homo sapiens, UniProt P22694)
[2] = molecular target: Chromodomain-helicase-DNA-binding protein 4 (Homo sapiens, UniProt Q14839)
[3] = molecular target: Serine/threonine-protein kinase N1 (Homo sapiens, UniProt Q16512)
[4] = molecular target: T1, Receptor-type tyrosine-protein kinase FLT3 (Homo sapiens, UniProt P36888)
T1 sequence (P36888 whole entry): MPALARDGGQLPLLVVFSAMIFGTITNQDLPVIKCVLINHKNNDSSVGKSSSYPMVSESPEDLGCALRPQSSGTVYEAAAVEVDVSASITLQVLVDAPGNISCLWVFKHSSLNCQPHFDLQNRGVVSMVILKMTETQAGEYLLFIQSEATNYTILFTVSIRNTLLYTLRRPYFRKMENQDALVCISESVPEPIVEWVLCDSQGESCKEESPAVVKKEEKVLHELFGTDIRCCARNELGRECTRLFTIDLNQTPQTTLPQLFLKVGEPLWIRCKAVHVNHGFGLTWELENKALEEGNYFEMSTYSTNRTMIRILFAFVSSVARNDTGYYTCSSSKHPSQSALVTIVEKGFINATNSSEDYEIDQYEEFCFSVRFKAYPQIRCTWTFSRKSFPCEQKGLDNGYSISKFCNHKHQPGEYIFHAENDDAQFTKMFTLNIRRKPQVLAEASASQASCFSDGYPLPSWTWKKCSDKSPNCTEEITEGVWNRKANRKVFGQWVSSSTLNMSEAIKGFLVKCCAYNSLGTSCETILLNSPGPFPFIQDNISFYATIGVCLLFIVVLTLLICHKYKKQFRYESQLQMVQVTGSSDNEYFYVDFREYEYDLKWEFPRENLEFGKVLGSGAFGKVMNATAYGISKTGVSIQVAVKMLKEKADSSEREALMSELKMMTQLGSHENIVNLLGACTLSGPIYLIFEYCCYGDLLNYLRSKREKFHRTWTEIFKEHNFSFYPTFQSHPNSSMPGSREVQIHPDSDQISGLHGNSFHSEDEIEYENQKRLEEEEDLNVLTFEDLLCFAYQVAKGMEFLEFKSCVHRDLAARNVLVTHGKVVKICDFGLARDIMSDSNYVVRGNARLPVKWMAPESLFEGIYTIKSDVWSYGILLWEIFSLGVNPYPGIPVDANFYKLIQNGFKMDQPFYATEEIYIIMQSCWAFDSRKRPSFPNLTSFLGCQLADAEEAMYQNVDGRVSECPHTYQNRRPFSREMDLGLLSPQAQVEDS

[5] = molecular target: NADH dehydrogenase [ubiquinone] 1 alpha subcomplex subunit 13 (Homo sapiens, UniProt Q9P0J0)
[6] = molecular target: Non-receptor tyrosine-protein kinase TYK2 (Homo sapiens, UniProt P29597)
[7] = molecular target: T2, Serine/threonine-protein kinase 3 (Homo sapiens, UniProt Q13188)
T2 sequence (Q13188 whole entry): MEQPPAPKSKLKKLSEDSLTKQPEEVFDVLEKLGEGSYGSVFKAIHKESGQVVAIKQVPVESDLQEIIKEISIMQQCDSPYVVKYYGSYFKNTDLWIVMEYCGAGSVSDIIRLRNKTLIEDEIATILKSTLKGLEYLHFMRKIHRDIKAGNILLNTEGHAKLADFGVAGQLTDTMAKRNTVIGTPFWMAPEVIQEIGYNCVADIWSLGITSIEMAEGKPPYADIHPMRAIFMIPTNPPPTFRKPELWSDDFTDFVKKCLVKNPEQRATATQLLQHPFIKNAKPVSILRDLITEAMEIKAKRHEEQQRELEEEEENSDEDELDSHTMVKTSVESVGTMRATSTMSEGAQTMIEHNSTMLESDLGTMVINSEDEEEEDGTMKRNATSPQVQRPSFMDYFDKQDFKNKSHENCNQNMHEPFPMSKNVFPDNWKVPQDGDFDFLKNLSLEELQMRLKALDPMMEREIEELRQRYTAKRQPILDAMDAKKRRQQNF

[8] = molecular target: T3, Serine/threonine-protein kinase D2 (Homo sapiens, UniProt Q9BZL6)
T3 sequence (Q9BZL6 whole entry): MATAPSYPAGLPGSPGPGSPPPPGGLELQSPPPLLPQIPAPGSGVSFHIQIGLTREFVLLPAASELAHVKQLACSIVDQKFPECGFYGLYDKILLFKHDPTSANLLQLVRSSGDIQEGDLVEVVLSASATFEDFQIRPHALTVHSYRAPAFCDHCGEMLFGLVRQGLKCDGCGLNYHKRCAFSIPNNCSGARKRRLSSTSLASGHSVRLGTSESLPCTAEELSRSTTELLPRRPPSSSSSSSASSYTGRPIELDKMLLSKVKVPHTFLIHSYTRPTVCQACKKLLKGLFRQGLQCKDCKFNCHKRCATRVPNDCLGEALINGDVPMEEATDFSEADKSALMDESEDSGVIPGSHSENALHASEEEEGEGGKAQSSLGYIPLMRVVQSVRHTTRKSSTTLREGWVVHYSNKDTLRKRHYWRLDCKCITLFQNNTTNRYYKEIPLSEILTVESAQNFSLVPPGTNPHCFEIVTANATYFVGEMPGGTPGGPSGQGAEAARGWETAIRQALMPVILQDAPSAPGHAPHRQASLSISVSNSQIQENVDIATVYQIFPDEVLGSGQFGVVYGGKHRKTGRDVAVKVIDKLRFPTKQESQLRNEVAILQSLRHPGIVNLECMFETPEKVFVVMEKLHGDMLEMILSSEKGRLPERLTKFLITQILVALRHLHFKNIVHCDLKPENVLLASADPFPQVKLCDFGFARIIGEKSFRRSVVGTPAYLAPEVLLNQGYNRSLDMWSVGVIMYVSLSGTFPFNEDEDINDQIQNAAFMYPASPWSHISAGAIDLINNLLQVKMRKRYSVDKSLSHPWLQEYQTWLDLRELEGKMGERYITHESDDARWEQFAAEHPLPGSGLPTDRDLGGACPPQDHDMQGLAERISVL

NADH dehydrogenase [ubiquinone] 1 alpha subcomplex subunit 13, sequence (Q9P0J0 whole entry, one chain of several): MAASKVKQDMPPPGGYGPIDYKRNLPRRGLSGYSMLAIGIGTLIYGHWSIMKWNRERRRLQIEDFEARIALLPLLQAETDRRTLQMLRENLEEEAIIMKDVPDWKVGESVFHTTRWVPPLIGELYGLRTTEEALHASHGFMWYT
Non-receptor tyrosine-protein kinase TYK2, sequence (P29597 whole entry): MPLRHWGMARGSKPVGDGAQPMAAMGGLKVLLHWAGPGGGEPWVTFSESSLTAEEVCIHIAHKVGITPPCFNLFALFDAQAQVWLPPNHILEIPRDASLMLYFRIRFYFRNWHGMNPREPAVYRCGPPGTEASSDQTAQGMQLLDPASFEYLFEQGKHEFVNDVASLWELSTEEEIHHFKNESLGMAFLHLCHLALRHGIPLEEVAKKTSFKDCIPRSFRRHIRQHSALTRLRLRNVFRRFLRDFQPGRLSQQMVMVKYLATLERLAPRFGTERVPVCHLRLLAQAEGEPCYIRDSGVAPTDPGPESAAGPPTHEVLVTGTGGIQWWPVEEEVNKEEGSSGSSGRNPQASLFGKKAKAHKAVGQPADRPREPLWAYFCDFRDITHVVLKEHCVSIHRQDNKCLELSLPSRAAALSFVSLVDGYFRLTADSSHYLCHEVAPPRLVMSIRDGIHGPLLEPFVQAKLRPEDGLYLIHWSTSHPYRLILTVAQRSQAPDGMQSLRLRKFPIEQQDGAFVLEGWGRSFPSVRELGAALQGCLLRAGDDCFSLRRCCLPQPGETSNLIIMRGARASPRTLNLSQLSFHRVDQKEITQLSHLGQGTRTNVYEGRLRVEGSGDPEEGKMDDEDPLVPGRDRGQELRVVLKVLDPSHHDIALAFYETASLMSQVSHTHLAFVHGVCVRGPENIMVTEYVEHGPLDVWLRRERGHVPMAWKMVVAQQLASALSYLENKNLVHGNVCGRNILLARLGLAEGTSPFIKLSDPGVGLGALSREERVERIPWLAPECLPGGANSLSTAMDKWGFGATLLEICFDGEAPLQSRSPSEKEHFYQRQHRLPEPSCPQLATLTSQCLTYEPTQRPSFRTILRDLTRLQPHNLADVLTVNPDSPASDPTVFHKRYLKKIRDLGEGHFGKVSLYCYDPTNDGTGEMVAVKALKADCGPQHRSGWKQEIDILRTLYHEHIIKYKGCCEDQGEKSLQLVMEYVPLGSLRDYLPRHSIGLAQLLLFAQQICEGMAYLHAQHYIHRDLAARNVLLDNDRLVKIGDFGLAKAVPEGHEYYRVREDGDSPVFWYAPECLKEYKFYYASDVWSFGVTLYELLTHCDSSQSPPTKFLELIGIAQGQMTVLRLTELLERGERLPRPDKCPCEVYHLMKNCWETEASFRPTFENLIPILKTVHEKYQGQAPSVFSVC
Chromodomain-helicase-DNA-binding protein 4, sequence (Q14839 whole entry): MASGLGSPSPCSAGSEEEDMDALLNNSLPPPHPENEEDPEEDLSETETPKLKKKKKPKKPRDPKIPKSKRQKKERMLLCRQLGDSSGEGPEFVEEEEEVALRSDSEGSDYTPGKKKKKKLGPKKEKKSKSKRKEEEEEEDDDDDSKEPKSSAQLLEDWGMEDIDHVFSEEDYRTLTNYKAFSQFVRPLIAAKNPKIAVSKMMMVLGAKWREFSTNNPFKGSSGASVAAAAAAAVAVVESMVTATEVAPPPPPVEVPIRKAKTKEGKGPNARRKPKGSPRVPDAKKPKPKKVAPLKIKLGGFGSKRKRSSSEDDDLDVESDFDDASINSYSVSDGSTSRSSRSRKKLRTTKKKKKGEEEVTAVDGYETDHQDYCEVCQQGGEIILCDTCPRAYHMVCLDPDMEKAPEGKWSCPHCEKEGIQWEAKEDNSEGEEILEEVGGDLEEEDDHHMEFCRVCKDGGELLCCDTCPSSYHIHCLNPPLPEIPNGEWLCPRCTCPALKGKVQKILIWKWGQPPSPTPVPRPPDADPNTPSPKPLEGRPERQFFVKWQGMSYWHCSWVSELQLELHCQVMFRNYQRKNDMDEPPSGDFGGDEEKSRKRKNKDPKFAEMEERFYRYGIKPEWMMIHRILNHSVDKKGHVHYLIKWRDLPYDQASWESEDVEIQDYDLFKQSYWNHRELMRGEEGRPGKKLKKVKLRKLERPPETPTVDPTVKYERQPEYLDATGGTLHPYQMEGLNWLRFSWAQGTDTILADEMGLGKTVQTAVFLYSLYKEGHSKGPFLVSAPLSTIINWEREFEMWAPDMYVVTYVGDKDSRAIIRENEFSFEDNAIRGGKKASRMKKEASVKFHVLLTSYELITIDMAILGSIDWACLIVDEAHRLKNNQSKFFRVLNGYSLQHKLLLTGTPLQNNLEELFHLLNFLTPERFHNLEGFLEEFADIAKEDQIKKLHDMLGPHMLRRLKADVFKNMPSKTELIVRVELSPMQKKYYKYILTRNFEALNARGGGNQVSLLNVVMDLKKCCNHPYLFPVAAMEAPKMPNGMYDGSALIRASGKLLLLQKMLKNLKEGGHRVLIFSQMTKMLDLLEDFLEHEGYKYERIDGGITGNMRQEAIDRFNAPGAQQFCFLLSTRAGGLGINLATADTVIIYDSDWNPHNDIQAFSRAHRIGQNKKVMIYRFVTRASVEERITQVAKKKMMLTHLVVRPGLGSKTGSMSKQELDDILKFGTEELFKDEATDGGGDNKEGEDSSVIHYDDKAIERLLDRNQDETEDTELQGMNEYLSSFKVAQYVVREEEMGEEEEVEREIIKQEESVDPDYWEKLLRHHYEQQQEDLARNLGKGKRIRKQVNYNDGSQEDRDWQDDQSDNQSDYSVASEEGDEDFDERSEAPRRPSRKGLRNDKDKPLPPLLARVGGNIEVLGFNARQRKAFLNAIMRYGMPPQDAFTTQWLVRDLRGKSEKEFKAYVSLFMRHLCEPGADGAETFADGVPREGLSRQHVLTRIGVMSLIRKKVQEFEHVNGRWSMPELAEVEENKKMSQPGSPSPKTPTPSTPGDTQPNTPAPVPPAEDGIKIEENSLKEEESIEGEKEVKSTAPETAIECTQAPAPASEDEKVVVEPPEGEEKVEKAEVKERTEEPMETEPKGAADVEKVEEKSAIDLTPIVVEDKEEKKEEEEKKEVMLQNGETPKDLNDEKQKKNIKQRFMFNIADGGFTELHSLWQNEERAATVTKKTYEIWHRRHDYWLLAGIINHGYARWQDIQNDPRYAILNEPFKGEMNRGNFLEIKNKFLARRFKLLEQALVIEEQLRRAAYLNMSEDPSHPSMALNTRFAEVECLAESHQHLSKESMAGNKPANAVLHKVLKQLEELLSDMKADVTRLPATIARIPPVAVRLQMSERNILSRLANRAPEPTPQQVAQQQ
Serine/threonine-protein kinase N1, sequence (Q16512 whole entry): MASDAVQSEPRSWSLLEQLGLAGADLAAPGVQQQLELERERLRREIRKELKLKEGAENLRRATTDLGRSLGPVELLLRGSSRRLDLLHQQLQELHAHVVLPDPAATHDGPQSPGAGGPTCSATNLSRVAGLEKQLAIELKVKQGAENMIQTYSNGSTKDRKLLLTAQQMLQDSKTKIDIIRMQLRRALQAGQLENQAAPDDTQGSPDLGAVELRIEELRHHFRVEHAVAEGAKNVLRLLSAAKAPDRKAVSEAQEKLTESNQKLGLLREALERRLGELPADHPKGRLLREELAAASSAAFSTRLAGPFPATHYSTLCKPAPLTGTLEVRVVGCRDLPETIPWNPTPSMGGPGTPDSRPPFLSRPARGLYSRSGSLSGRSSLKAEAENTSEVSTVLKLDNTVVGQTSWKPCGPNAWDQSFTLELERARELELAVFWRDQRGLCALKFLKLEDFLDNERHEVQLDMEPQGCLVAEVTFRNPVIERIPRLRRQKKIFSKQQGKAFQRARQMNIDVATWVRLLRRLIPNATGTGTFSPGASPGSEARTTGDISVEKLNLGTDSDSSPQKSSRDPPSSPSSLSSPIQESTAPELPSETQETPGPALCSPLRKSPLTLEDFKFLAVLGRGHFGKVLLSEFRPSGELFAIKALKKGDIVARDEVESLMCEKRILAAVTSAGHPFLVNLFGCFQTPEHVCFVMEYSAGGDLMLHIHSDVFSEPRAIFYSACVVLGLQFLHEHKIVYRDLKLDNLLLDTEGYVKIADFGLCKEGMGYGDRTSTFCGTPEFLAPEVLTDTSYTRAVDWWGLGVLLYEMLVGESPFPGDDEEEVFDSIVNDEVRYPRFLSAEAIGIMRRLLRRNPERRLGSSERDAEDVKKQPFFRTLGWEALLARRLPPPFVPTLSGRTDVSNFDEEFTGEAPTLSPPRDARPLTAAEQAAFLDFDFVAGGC

Row | Structure (SMILES) | Kd [1] | Kd [2] | Kd [3] | Kd [4] | Kd [5] | Kd [6] | Kd [7] | Kd [8]
1 | CN1CCC(CNc2ccc3ncc(-c4cccc(OC(F)(F)F)c4)n3n2)CC1 [SGI-1776] | > 30 µM (inactive) | > 30 µM (inactive) | 35.4 µM (active) | 0.143 µM (active) | > 30 µM (inactive) | > 30 µM (inactive) | > 30 µM (inactive) | > 30 µM (inactive)
2 | CCCS(=O)(=O)Nc1ccc(F)c(C(=O)c2c[nH]c3ncc(-c4ccc(Cl)cc4)cc23)c1F [VEMURAFENIB] | > 30 µM (inactive) | > 30 µM (inactive) | > 30 µM (inactive) | > 30 µM (inactive) | > 30 µM (inactive) | > 30 µM (inactive) | > 30 µM (inactive) | > 30 µM (inactive)

Source: ChEMBL document CHEMBL3991601, “The target landscape of clinical kinase drugs” (Science, 2017)
